Assay results taken from patent publication US20200170269A1, “ALLULOSE-CONTAINING COMPOSITION FOR PROMOTING EXCRETION OF VEGETABLE LIPIDS FROM THE BODY” (CJ CHEILJEDANG CORPORATION, priority 2016, published 2020).

How the values were obtained:
Format in all cases: in vivo
[1] = Body weight of C57BL/6J mice fed a high-fat diet containing vegetable lipids (palm oil, olive oil, soybean oil, margarine) with or without 5% allulose for 8 weeks; conditions: with allulose (5%), mean (SE in cell below); for Initial body weight: 0th week
Source text: Twenty C57BL/6J mice (male, 4-week-old) were purchased from The Jackson Laboratory (USA) and used. After the animals were acclimated to the feeding environment with a lab-chow diet (Purina Co., USA) for 4 weeks, they were divided by a randomized block design into two groups: a negative control group without the ingestion of allulose (n=10/one kind of lipid); and a test group with the ingestion of allulose (n=10/one kind of lipid) and they were fed with the diets for 8 weeks. For the negative control group, the high-fat diet was applied to the AIN-76 diet, and the vegetable lipids [palm oil ([…], Malaysia), olive oil (CJ CheilJedang Corp., South Korea), soybean oil (CJ CheilJedang Corp., South Korea), margarine (Ottogi Foods Co., Ltd., 'Corn margarine', raw materials: consisted of 80 wt % of vegetable lipids (palm olein oil, palm stearin oil, coconut oil, corn oil)] were included. For the test group, among the ingredients of the diet for the negative control group, 5 wt % of sucrose was replaced with allulose (crystalline allulose, 98 wt % of allulose based on dry solids, CJ CheilJedang Corporation) (Table 1). All the animal experiments were carried out under the approval of the Ethics Committee for Animal Studies at Kyungpook National University, South Korea (approval no. KNU-2013-18). All groups were allowed to ingest the iso-energetic diet of the same level by pair feeding based on the test group so as to exclude the calorie-reducing effect due to the allulose and the diets were kept refrigerated at 4° C. during the feeding period. The animals were housed in an individual cage under constant temperature (25±2° C.), constant humidity (50±5%), and a 12 h dark-light cycle. Dietary intake was measured at a constant time every day, and the body weight was measured at a constant time every week.

[2] = Fecal lipid excretion (triglycerides, cholesterol, free fatty acids) in C57BL/6J mice fed a high-fat diet containing vegetable lipids with or without 5% allulose for 8 weeks; conditions: in words
Source text: Twenty C57BL/6J mice (male, 4-week-old) were purchased from The Jackson Laboratory (USA) and used. After the animals were acclimated to the feeding environment with a lab-chow diet (Purina Co., USA) for 4 weeks, they were divided by a randomized block design into two groups: a negative control group without the ingestion of allulose (n=10/one kind of lipid); and a test group with the ingestion of allulose (n=10/one kind of lipid) and they were fed with the diets for 8 weeks. For the negative control group, the high-fat diet was applied to the AIN-76 diet, and the vegetable lipids [palm oil ([…], Malaysia), olive oil (CJ CheilJedang Corp., South Korea), soybean oil (CJ CheilJedang Corp., South Korea), margarine (Ottogi Foods Co., Ltd., 'Corn margarine', raw materials: consisted of 80 wt % of vegetable lipids (palm olein oil, palm stearin oil, coconut oil, corn oil)] were included. For the test group, among the ingredients of the diet for the negative control group, 5 wt % of sucrose was replaced with allulose (crystalline allulose, 98 wt % of allulose based on dry solids, CJ CheilJedang Corporation) (Table 1). All the animal experiments were carried out under the approval of the Ethics Committee for Animal Studies at Kyungpook National University, South Korea (approval no. KNU-2013-18). […] To remove the turbidity occurring from the development with 3 mM cholic acid (sodium salt), 0.5% Triton X-100 as an emulsifier was mixed with an enzyme test solution during the quantification of total cholesterol and neutral lipids. […] For the quantification of both free cholesterol (FC) and ester-type cholesterol (CE) in the feces, CE was converted by cholesterol esterase into FC and fatty acids. […] The resulting product and H2O2 which is the substrate were subjected to the reaction with peroxidase, phenol, and 4-amino-antipyrine to obtain a color developing material and the absorbance was measured at 500 nm. Quantification was carried out by comparing the measured value with the cholesterol standard curve. […]

[3] = Fecal lipid excretion (triglycerides, cholesterol, free fatty acids) in C57BL/6J mice fed a high-fat diet containing creamer with or without 5% allulose for 8 weeks; conditions: allulose consumed along with vegetable lipids in the creamer, in words
Source text: Sixteen C57BL/6J mice (male, 4-week-old) were purchased from The Jackson Laboratory (USA) and used. After the animals were acclimated to the feeding environment with a lab-chow diet (Purina Co., USA) for 4 weeks, they were divided by a randomized block design into two groups: a negative control group without the ingestion of allulose (PR, n=8); and a test group with the ingestion of allulose (PRA, n=8) and they were fed with the diets for 8 weeks. […] To remove the turbidity occurring from the development with 3 mM cholic acid (sodium salt), 0.5% Triton X-100 as an emulsifier was mixed with an enzyme test solution during the quantification of total cholesterol and neutral lipids. […] For the quantification of both free cholesterol (FC) and ester-type cholesterol (CE) in the feces, CE was converted by cholesterol esterase into FC and fatty acids. […] The resulting product and H2O2 which is the substrate were subjected to the reaction with peroxidase, phenol, and 4-amino-antipyrine to obtain a color developing material and the absorbance was measured at 500 nm. Quantification was carried out by comparing the measured value with the cholesterol standard curve. […]

In the case of O=C(CO)C(O)C(O)C(O)CO [allulose, Allulose (D-psicose)], the Initial body weight ([1]; HFD + margarine) is reported as 21.57±, the “Body weight on 8th week” value ([1]; HFD + margarine) is reported as 32.30± and the Initial body weight ([1]; HFD + olive oil) is reported as 21.28±. The “Body weight on 8th week” value ([1]; HFD + olive oil) was 28.87±, the Initial body weight ([1]; HFD + palm oil) was 21.62± and the “Body weight on 8th week” value ([1]; HFD + palm oil) was 29.57±. The Initial body weight ([1]; HFD + soybean oil) was 21.23±, the “Body weight on 8th week” value ([1]; HFD + soybean oil) was 28.84± and the “Cholesterol content in the feces / excretion of cholesterol” value ([2]; HFD + soybean oil with 5% allulose compared to the SO group) was “increased”. The “Fecal excretion of lipids” value ([2]; allulose consumed along with each of palm oil, olive oil, soybean oil, and margarine) was “promoted”, the “Effect of excreting lipids compared to ingestion of allulose along with other vegetable lipids” value ([2]; allulose taken together with soybean oil) was “excellent” and the “Fecal excretion of lipids” value [3] was “promoted”.
